According to US20240058299A1 (Humanetics Corporation, priority 2021, published 2024):
Entries after “also recorded” stand apart in the source; their conditions may differ.

Experiments:
[1] = tested on: microHeart cells (human induced pluripotent stem cell-derived cardiac cells); experiment: Survival of irradiated microHeart cells by trypan blue staining; assay type: cell-based
Procedure: Cell survival was measured by trypan blue staining. The number of surviving cells 24 hours after irradiation is plotted. […] Cell survival was measured by trypan blue staining. The number of surviving cells 72 hours after irradiation is plotted.
Further studies using genistein were conducted in microHeart cells (StemoniX, Maple Grove, MN) exposed to different types of radiation. […] Cell survival was evaluated 24 hours after radiation exposure. […] Cell survival was evaluated 72 hours after radiation exposure. […] Moreover, since cell death causes the release of pro-inflammatory signals, protecting cells from death may reduce inflammation.

[2] = tested on: NF-κB, pro-inflammatory cytokines (IL-1, IL-6, TNFα), pro-fibrotic proteins (TGFβ, MMP-2, MMP-9, LDH); details: literature reports; cited from earlier work
[3] = Solubility in pharmaceutically acceptable solvents; assay type: physicochemical; details: several pharmaceutically acceptable solvents
Excerpt: The relative amount of genistein included in such a suspension can be varied to yield a formulation having a desired total content of genistein.

O=c1c(-c2ccc(O)cc2)coc2cc(O)cc(O)c12 [genistein, 5,7-dihydroxy-3-(4-hydroxyphenyl)-4H-chromen-4-one]
killing effect of γ-radiation (cell survival) ([1]; 0.5 μM or 5 μM, 24 hours before 1 Gy γ-radiation, survival 24 hours after irradiation): the killing effect was mitigated by genistein; also recorded: Genistein treatment was radioprotective
killing effect of mixed field radiation (cell survival) ([1]; 0.5 μM, 24 hours before 1 Gy mixed field radiation (˜32% neutron, −68% gamma), survival 72 hours after irradiation): the killing effect was again mitigated by genistein; also recorded: genistein was radioprotective
expression of NF-κB, pro-inflammatory cytokines and pro-fibrotic proteins [2]: reduce expression
solubility [3]: low to virtually no solubility
